Experimental data published in patent publication US20150328280A1, “ALISPORIVR FOR TREATMENT OF HEPATITIS C VIRUS INFECTION” (priority 2011, published 2015).

How the values were obtained:
[1] = system: HCV genotype 1; assay: phase 2 study of genotype 1 treatment-naive patients, sustained virologic response; assay type: in vivo, human; settings: alisporivir 600 mg BID for one week, then 600 mg QD, 48 week treatment, combined with peg-IFNa2a
Description: The virological response parameters are: rapid virologic response at treatment week 4 (RVR 4) defined by undetectable serum HCV-RNA at treatment week 4; early virological response (EVR), defined by at least 2 log10 IU/mL reduction in HCV-RNA compared to baseline (partial EVR) or undetectable serum HCV-RNA (complete EVR) at treatment week 12; sustained virological response (SVR24), defined as absence of HCV-RNA from serum by a sensitive Polymerase Chain Reaction (PCR) assay 24 weeks following end of therapy or the HCV RNA is undetectable (by LOD) 24 weeks after end of treatment; End of Treatment Response (ETR): HCV RNA undetectable (by LOD) at treatment end (completed or prematurely discontinued).

[2] = system: HCV genotype 1; assay: study of alisporivir in HCV Genotype 1 non responder patients, decline in HCV RNA; assay type: in vivo, human; settings: first week of treatment, with peg-IFNα2a plus RBV
Description: The efficacy of the therapy regimen may be monitored using standard protocols. Treatment may be followed by determinations of HCV in serum and measurement of serum ALT (alanine-aminotransferase) levels. For example, the patients may be assessed for the presence of HCV RNA in their plasma. HCV RNA (IU/mL) can be measured at regular intervals during the treatment, e.g., at Day 1 (pre-dose and 4, 8, and 12 hours post-dose) and pre-dose at Day 2, Day 3, Day 8, Day 15, Day 29, and at Week 12, Week 24, Week 36, Week 48, Week 72 (when applicable), and at follow up. In addition, the HCV strains in the patient can be sequenced and assessed for identification of mutations selecting for resistance.
In addition, study of the use of alisporivir in HCV Genotype 1 non responder patients addressed the utility of a 400 mg BID dose regimen versus the same total daily dose given once daily (800 mg QD) during the first week of treatment, both with peg-IFNα2a plus RBV, and the possible relationships between Cmax, AUC, or Cmin and antiviral effect at the end of that treatment period. In this hard to treat patient population, the 400 mg BID dose provided greater decline in HCV RNA from baseline (−1.41 log10 IU/m1) than the 800 mg QD dose (−0.70 log10 IU/ml). […]

[3] = boceprevir recipients; cited from earlier work

| Structure (SMILES) | rates of achievement of sustained virologic response (SVR) versus peg-IFNα2a [1] | decline in HCV RNA from baseline ([2]; 400 mg BID) [log10 IU/m1] | decline in HCV RNA from baseline ([2]; 800 mg QD) [log10 IU/ml] | treatment-emergent anemia versus pegylated interferon and ribavirin recipients [3] |
| --- | --- | --- | --- | --- |
| C/C=C/C[C@@H](C)[C@@H](O)[C@H]1C(=O)N[C@@H](CC)C(=O)N(C)[C@H](C)C(=O)N(CC)[C@@H](C(C)C)C(=O)N[C@@H](C(C)C)C(=O)N(C)[C@@H](CC(C)C)C(=O)N[C@@H](C)C(=O)N[C@H](C)C(=O)N(C)[C@@H](CC(C)C)C(=O)N(C)[C@@H](CC(C)C)C(=O)N(C)[C@@H](C(C)C)C(=O)N1C [alisporivir, Alisporivir] | superior | −1.41 | −0.70 | – |
| CC(C)(C)NC(=O)N[C@H](C(=O)N1C[C@H]2[C@@H]([C@H]1C(=O)NC(CC1CCC1)C(=O)C(N)=O)C2(C)C)C(C)(C)C (stereo partly shown) [boceprevir] | – | – | – | significantly higher |
